Experimental findings from patent publication US10047051B2, “Substituted pyridines and method of use” (AbbVie S.á{acute over (.)}r.l., priority 2015, dated 2018) are described below.

What all share (type): cell-based
Assay [1] has as its target T1, CFTR ΔF508 mutant (Homo sapiens, UniProt P13569, DEL508-508).
T1 construct: expressed in transfected cells; host or cells: CFBE41o- cells, adenoviral transduction
Kind of assay: YFP-halide influx assay for the CFTR-ΔF508 mutation (CFBE41o- cells). As to conditions: forskolin 10.67 μM; for EC50: from (1−F/F0) vs concentration plot. In outline: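 EC50 derived from plotting 1−F/F0 (fluorescence 36 s after iodide injection over pre-injection value) against compound concentration. Cells: CFBE41o- transduced with ΔF508-CFTR and YFP quench reporter, corrected 24 h at 27° C or by a CFTR modulator at 37° C.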

The target in assay [2] is T2, CFTR G551D mutant (Homo sapiens, UniProt P13569, G551D).
T2 construct: expressed in transfected cells; host or cells: HEK293 cells, reverse transfection with plasmids
Kind of assay: YFP-halide influx assay for the CFTR-G551D mutation (HEK293 cells). As to conditions: forskolin 10.67 μM. In short, it runs like this:
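Channel opening read as I⁻-driven quenching of a YFP H148Q/I152L/F47L reporter over 7 s post-injection, expressed as 1−F/F0 and fitted against concentration for EC50. Cells were HEK293 co-transfected at seeding with G551D CFTR plus reporter, then grown 24 h at 37 °C, 5% CO2.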

The target of assay [3] is G551D CFTR (Homo sapiens, UniProt P13569, G551D). Kind of assay: TECC assay, FRT-CFTR G551D protocol. As to conditions: FRT cells stably transfected with G551D CFTR, high expression cells, increase in Isc after forskolin. Here is the method: For G551D recordings, Fischer Rat Thyroid (FRT) cells stably transfected with G551D CFTR (a low CFTR-G551D expressing cell line and a high expressing CFTR-G551D cell line from Rosalind Franklin University of Medicine and Science, North Chicago, Ill.) are plated on Transwell® supports (Costar 6.5 mm diameter, 0.4 μm pore size). The cells are grown for 8-10 days under liquid-liquid interface conditions prior to electrophysiological readings. For electrophysiological recording, the FRT-G551D cells are mounted in the TECC heating plate for electrophysiological measurement and kept at 37° C. The epithelia are bathed in HEPES buffered culturing medium without FBS on both the basolateral and apical sides. Apical amiloride is used to inhibit the endogenous ENaC currents while forkolin is applied on both apical and basolateral side to stimulate CFTR. After forskolin triggering, compounds are added on both sides to test their potential for increasing CFTR gating. Measurements are done during a 10 minute timeframe with recordings every 2 minutes. The increase in Isc is used as a measure for the increased CFTR activity, EC50 values can be generated by measuring impact of different concentrations of compound on Isc on the cells, for this purpose each transwell is treated with a different compound concentration. Inh-172, an inhibitor specific for CFTR, is used to test the specificity of the tested compounds.

Assay [4] concerns the target T3, CFTR-G178R (Homo sapiens, UniProt P13569, G178R).
T3 construct: expressed in transfected cells
The assay is described as follows: YFP-halide influx assay for the CFTR-G178R. An excerpt: (§1) The YFP halide influx assay measured the functionality of the cystic fibrosis Transmembrane Conductance regulator (CFTR) channels. The assay was used to evaluate the capacity of compounds to increase the channel opening of existing mutant CFTR channels in the membrane. It makes use of the observation that the yellow fluorescent protein (YFP) variant YFP H148Q, I152L, F47L has its fluorescence substantially quenched by halide ions like Cl^− and I^− (Galietta, L. J. V., Haggie, P. M., Verkman, A. S., 2001. Green fluorescent protein-based halide indicators with improved chloride and iodide affinities. FEBS Lett. 499, 220-224. doi:10.1016/S0014-5793(01)02561-3).
(§2) For this purpose, HEK293-cells were seeded in 96 well plates. During seeding, the cells were reverse-transfected with plasmid vectors that direct the expression of the CFTR G551D mutant and of the YFP reporter. Cells were incubated at 37° C., 5% CO2 for 24 hours so as to allow for sufficient expression of the CFTR protein.
(§3) The I^−-induced quenching of fluorescence was recorded immediately after injection of I^− for 7 seconds. The capacity of a compound to increase the channel opening was directly correlated with the decrease in fluorescence, and was expressed as (1−(fluorescence after 7 seconds (F)/fluorescence before injection (F0))) and an EC50 was derived from a (1−F/F0) vs compound concentration plot.
(§4) Similar YHA assays were developed for other channel gating defective or channel conductance defective CFTR mutants to determine effect of compound on channel activity. Examples of mutants are G178R, G1349D, S549N, R117H, R334W. This assay is also used for additional class I CFTR mutants, including G542X, W1282X; class II mutants including N1303K, and for class III mutants including S1251N; or wild-type CFTR.

For assay [5], the target named is T4, CFTR-G1349D (Homo sapiens, UniProt P13569, G1349D).
T4 construct: expressed in transfected cells
Kind of assay: YFP-halide influx assay for the CFTR-G1349D. In outline:
(§5)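 HEK293 cells reverse-transfected with a CFTR mutant and YFP H148Q/I152L/F47L halide sensor, expressed 24 h at 37° C. Fluorescence quenching followed for 7 s after I⁻ injection; activity expressed as 1−F/F0, with EC50 fitted from 1−F/F0 versus compound concentration.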

The target in assay [6] is T5, CFTR-S549N (Homo sapiens, UniProt P13569, S549N).
T5 construct: expressed in transfected cells
Kind of assay: YFP-halide influx assay for the CFTR-S549N. On the set-up: % Activation: concentration or dose not given beside the values.
Source text: as §1, §2, §3, §4

Assay [7] deals with T6, CFTR-R117H (Homo sapiens, UniProt P13569, R117H).
T6 construct: expressed in transfected cells
Kind of assay: YFP-halide influx assay for the CFTR-R117H. In short, it runs like this: as §5

T4 sequence (P13569 whole entry G1349D): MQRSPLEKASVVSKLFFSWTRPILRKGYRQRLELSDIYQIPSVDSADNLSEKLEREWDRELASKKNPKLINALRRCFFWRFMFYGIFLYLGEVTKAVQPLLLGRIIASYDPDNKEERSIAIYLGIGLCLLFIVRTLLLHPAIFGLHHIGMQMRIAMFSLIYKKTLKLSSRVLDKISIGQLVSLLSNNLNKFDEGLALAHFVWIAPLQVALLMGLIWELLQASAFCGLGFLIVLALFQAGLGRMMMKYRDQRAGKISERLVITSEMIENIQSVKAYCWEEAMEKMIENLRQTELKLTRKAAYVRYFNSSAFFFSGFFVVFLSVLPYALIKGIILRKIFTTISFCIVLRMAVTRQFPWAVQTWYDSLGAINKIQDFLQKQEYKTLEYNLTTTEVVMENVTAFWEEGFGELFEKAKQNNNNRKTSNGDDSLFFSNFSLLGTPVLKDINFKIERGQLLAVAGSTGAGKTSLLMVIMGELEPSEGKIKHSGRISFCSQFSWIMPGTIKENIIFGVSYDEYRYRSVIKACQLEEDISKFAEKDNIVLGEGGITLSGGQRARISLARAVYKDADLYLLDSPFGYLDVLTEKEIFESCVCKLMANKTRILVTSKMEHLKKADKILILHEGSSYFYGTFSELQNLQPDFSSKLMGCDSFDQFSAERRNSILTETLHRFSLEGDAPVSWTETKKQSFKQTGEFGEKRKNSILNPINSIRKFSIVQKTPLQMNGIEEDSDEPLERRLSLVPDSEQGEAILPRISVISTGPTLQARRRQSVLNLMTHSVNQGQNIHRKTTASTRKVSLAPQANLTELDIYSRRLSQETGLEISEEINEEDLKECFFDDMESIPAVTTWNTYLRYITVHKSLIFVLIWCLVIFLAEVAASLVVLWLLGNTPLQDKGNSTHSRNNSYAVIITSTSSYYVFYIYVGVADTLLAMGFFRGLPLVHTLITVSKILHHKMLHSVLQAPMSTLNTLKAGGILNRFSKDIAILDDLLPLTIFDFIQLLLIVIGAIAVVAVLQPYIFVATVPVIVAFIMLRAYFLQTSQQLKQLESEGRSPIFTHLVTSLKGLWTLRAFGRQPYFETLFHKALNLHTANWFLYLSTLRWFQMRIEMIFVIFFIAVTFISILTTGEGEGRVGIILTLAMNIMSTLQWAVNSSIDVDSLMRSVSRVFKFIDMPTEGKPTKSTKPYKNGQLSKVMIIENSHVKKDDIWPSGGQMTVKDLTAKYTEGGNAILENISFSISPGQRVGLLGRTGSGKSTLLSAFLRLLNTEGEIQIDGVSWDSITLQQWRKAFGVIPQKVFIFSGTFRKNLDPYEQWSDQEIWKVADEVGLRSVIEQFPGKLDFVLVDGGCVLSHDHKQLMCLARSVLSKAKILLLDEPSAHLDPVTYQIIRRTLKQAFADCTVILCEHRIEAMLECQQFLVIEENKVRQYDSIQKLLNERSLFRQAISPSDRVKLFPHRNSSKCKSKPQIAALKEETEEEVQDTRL
T5 sequence (P13569 whole entry S549N): as the sequence (P13569 whole entry G1349D) above, with S549N, D1349G counted along it
T3 sequence (P13569 whole entry G178R): as the sequence (P13569 whole entry G1349D) above, with G178R, D1349G counted along it
T6 sequence (P13569 whole entry R117H): as the sequence (P13569 whole entry G1349D) above, with R117H, D1349G counted along it
T1 sequence (P13569 with tags, fused parts or gaps DEL508-508): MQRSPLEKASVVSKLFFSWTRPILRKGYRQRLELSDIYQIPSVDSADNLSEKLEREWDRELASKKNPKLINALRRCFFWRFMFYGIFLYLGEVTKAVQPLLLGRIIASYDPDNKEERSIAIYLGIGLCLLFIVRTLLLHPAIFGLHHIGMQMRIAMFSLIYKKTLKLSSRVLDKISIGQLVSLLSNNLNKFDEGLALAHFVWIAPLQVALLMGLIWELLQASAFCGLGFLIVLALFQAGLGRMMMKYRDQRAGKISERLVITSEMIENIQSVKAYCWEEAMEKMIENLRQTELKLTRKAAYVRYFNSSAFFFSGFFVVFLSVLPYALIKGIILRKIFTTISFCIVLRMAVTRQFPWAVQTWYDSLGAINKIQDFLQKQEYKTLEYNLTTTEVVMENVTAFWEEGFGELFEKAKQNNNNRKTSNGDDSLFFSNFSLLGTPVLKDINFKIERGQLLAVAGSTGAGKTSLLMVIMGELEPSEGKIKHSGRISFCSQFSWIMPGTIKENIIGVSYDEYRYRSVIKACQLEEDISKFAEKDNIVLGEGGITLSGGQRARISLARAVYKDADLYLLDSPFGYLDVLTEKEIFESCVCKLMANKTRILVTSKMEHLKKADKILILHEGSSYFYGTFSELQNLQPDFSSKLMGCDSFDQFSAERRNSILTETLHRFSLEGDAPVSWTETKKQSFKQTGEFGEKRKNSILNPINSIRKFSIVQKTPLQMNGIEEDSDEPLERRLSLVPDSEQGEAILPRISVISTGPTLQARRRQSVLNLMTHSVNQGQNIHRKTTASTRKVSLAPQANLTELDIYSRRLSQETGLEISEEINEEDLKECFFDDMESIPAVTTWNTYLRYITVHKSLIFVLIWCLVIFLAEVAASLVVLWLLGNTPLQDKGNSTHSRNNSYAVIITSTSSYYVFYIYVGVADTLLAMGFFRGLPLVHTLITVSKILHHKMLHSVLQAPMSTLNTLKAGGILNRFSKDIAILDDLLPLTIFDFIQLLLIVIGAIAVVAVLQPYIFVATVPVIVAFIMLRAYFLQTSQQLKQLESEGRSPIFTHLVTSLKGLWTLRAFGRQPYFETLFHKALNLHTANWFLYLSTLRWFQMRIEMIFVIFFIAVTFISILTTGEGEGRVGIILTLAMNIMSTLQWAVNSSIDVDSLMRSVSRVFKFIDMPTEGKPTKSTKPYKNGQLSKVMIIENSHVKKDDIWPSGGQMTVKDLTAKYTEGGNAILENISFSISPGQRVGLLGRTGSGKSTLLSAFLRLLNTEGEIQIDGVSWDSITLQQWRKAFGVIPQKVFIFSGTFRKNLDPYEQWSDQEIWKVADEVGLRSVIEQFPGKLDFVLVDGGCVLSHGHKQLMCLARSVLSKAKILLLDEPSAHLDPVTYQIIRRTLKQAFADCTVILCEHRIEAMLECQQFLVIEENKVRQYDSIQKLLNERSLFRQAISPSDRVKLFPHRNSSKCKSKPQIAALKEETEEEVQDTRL
Sequence of G551D CFTR (P13569 whole entry G551D): as the sequence (P13569 whole entry G1349D) above, with G551D, D1349G counted along it
T2 sequence (P13569 whole entry G551D): as the sequence (P13569 whole entry G1349D) above, with G551D, D1349G counted along it

With `CC(CO)CNC(=O)c1ncc(S(=O)(=O)c2ccc(OC(F)(F)F)cc2)cc1N` (stereo not shown) [Compound 24, 3-amino-N-(3-hydroxy-2-methylpropyl)-5-{[4-(trifluoromethoxy)phenyl]sulfonyl}pyridine-2-carboxamide], the “% Activation” value is 106.6% in assay [1] and 52.2% in assay [2]. The EC50 in assay [1] is 21.4 nM; in assay [2], 423 nM; in assay [3], 2830 nM.

In the case of `COCC(O)CNC(=O)c1ncc(S(=O)(=O)c2ccc(OC(F)(F)F)cc2)cc1N` (stereo not shown) [Compound 3, 3-amino-N-(2-hydroxy-3-methoxypropyl)-5-{[4-(trifluoromethoxy)phenyl]sulfonyl}pyridine-2-carboxamide], the “% Activation” value was 109.7% in assay [1]; 73.9% in assay [2]; 98.2% in assay [4]; 83.2% in assay [5]; 91.8% in assay [6]; 102.0% in assay [7]. Besides, the concentration giving a half-maximal response (EC50) in assay [1] was found to be 17.7 nM; in assay [2], 1980 nM; in assay [4] it was 392 nM; in assay [5] it was 291 nM; in assay [6] it was 839 nM; in assay [7] it was 451 nM. Further, in assay [3], the EC50 was 1980 nM.

`C[C@@H](O)CNC(=O)c1ncc(S(=O)(=O)c2ccc(OC(F)(F)F)cc2)cc1N` [Compound 20, 3-amino-N-[(2R)-2-hydroxypropyl]-5-{[4-(trifluoromethoxy)phenyl]sulfonyl}pyridine-2-carboxamide]: the results for the “% Activation” value in assay [1] and in assay [2] were 98.5% and 64.8%, respectively. Moreover, the EC50 in assay [1] was found to be 29.7 nM; in assay [2] it was 893 nM; in assay [3], 3700 nM.

With `Nc1cc(S(=O)(=O)c2ccc(OC(F)(F)F)cc2)cnc1C(=O)NCC1(O)CC1` [Compound 15, 3-amino-N-[(1-hydroxycyclopropyl)methyl]-5-{[4-(trifluoromethoxy)phenyl]sulfonyl}pyridine-2-carboxamide], the “% Activation” value in assay [1] came to 109.0%; in assay [2], 69.3%. Besides, the EC50 came to 2.6 nM in assay [1], 361 nM in assay [2] and 669 nM in assay [3].

As for `CC(C)(CO)CNC(=O)c1ncc(S(=O)(=O)c2ccc(OC(F)(F)F)cc2)cc1N` [Compound 18, 3-amino-N-(3-hydroxy-2,2-dimethylpropyl)-5-{[4-(trifluoromethoxy)phenyl]sulfonyl}pyridine-2-carboxamide], the “% Activation” value in assay [1] is recorded as 109.1%; in assay [2] it was 79.2%. Moreover, the results for the EC50 in assay [1], in assay [2] and in assay [3] were 43.1 nM, more than 3330 nM and 1430 nM, respectively.

For the molecule `Nc1cc(S(=O)(=O)c2ccc(OC(F)(F)F)cc2)cnc1C(=O)N[C@@H]1CCCC[C@H]1O` (racemic) [Compound 17, rac-3-amino-N-[(1R,2R)-2-hydroxycyclohexyl]-5-{[4-(trifluoromethoxy)phenyl]sulfonyl}pyridine-2-carboxamide], the “% Activation” value turned out to be 113.0% in assay [1] and 82.7% in assay [2]. In addition, the values for the EC50 in assay [1], in assay [2] and in assay [3] were 8.8 nM, 1640 nM and 1130 nM, respectively.

`CC(C)(O)CNC(=O)c1ncc(S(=O)(=O)c2ccc(C(F)(F)F)cc2)cc1N` [Compound 11, 3-amino-N-(2-hydroxy-2-methylpropyl)-5-{[4-(trifluoromethyl)phenyl]sulfonyl}pyridine-2-carboxamide]: the “% Activation” value in assay [1] was found to be 113.5%; in assay [2], 75.7%; in assay [4], 95.3%; in assay [5], 90.4%; in assay [6], 84.1%; in assay [7], 90.4%. Besides, the EC50 stood at 21.7 nM in assay [1]; 835 nM in assay [2]; 442 nM in assay [4]; 1600 nM in assay [5]; 945 nM in assay [6]; 296 nM in assay [7]. This molecule also showed an EC50 in assay [3] of 1350 nM.

For `CC(C)(O)C1CN(C(=O)c2ncc(S(=O)(=O)c3ccc(C(F)(F)F)cc3)cc2N)C1` [Compound 165, (3-amino-5-{[4-(trifluoromethyl)phenyl]sulfonyl}pyridin-2-yl)[3-(2-hydroxypropan-2-yl)azetidin-1-yl]methanone], the “% Activation” value is listed as 115.2% in assay [1], 55.0% in assay [2], 87.6% in assay [5] and 94.2% in assay [7]. The EC50 in assay [1] amounted to 10.9 nM; in assay [2] it was 287 nM; in assay [5] it was 214 nM; in assay [7] it was 92.8 nM; in assay [3] it was 116 nM.

Turning to `CC(O)(CNC(=O)c1ncc(S(=O)(=O)c2ccc(F)cc2)cc1N)C(F)(F)F` (stereo not shown) [Compound 19, 3-amino-5-[(4-fluorophenyl)sulfonyl]-N-(3,3,3-trifluoro-2-hydroxy-2-methylpropyl)pyridine-2-carboxamide], the “% Activation” value was 113.3% in assay [1]; 63.2% in assay [2]; 89.9% in assay [4]; 84.3% in assay [5]; 79.6% in assay [6]; 90.8% in assay [7]. Also, the EC50 worked out at 16.4 nM in assay [1]; 1080 nM in assay [2]; 561 nM in assay [4]; 659 nM in assay [5]; 1610 nM in assay [6]; 186 nM in assay [7]. For the same molecule, in assay [3], a half-maximal effect (EC50) was put at 5480 nM.

By EC50 is commonly meant the concentration giving half of the maximal effect.
